Ten molecules from patent publication US12421253B2 (Mirati Therapeutics, Inc., priority 2020, dated 2025) can be followed below.

By IC50 is commonly meant the concentration that gives 50% inhibition. Low values mean higher potency, high ones lower potency.

For one experiment, the target named is T1, KRas^WT (Homo sapiens, UniProt P01116).
T1 construct: […]; biotin (biotinylated); purchased Accelegan Inc
Description: KRas binding assay (TR-FRET displacement of Cy5 labelled tracer).

The target of another experiment is T2, KRas^G12A (Homo sapiens, UniProt P01116, G12A).
T2 construct: […]; biotin (biotinylated); purchased Accelegan Inc
T2 sequence (P01116 1-169 isoform P01116-2 G12A): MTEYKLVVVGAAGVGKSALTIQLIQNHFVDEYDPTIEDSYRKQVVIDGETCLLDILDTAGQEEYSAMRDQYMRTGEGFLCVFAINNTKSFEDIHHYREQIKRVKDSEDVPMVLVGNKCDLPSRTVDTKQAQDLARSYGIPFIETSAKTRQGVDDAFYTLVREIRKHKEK
Described as above.

For another experiment, the target named is T3, KRas^G12D (Homo sapiens, UniProt P01116, G12D).
T3 construct: […]; biotin (biotinylated); purchased Accelegan Inc
T3 sequence (P01116 1-169 isoform P01116-2 G12D): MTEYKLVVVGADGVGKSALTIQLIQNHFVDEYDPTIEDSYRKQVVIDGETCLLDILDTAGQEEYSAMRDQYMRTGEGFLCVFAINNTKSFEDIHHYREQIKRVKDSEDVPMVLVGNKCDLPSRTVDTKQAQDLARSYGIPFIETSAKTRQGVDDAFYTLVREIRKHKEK
Described as above.

Another experiment deals with T4, KRas^G12R (Homo sapiens, UniProt P01116, G12R).
T4 construct: […]; biotin (biotinylated); purchased Accelegan Inc
T4 sequence (P01116 1-169 isoform P01116-2 G12R): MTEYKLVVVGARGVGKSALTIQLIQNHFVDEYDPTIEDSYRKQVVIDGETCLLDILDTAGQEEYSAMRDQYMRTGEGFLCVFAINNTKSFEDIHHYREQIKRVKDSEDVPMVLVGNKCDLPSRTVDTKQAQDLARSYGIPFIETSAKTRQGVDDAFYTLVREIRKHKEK
Described as above.

The target in a further experiment is T5, KRas^G12S (Homo sapiens, UniProt P01116, G12S).
T5 construct: […]; biotin (biotinylated); purchased Accelegan Inc
T5 sequence (P01116 1-169 isoform P01116-2 G12S): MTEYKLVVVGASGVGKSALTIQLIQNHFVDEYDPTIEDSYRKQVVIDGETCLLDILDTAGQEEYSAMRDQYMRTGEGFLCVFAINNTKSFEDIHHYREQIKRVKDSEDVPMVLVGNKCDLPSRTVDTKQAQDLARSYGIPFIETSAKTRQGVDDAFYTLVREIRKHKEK
The description is as above.

For a further experiment, the target named is T6, KRas^G12V (Homo sapiens, UniProt P01116, G12V).
T6 construct: […]; biotin (biotinylated); purchased Accelegan Inc
T6 sequence (P01116 1-169 isoform P01116-2 G12V): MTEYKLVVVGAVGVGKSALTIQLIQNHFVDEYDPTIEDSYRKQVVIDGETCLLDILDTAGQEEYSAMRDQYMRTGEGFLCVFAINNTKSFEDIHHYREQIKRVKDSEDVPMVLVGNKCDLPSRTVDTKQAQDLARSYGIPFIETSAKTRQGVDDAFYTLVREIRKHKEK
Described as above.

In a further experiment the target is KRas^G12C (Homo sapiens, UniProt P01116, G12C). In words: biochemical.
Sequence of KRas^G12C (P01116 1-169 isoform P01116-2 G12C): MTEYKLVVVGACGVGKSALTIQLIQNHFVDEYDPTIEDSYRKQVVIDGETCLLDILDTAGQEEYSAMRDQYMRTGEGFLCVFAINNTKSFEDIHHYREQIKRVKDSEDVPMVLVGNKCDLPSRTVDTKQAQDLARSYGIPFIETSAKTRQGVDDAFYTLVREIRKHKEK
Another experiment deals with KRas^G13D (Homo sapiens, UniProt P01116, G13D). Description: biochemical.
Sequence of KRas^G13D (P01116 1-169 isoform P01116-2 G13D): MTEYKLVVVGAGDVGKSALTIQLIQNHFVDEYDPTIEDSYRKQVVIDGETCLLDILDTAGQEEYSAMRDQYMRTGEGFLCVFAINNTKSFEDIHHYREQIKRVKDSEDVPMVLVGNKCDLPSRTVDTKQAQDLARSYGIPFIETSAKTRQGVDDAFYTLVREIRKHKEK
For a further experiment, the target named is KRas^Q61H (Homo sapiens, UniProt P01116, Q61H). Description: biochemical.
Sequence of KRas^Q61H (P01116 1-169 isoform P01116-2 Q61H): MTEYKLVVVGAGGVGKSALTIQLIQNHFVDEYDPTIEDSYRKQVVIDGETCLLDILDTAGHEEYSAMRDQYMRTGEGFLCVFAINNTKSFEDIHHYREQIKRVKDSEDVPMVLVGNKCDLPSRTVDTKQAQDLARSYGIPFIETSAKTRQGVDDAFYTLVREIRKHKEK

T1 sequence (P01116 1-169 isoform P01116-2): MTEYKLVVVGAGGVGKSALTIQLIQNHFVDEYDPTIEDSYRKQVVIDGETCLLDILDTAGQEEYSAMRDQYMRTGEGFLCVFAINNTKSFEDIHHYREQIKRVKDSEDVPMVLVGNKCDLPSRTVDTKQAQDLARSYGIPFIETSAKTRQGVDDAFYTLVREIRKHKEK
Description for KRas^G12A: (§1) The ability of a compound to bind to KRas was measured using a TR-FRET displacement assay. […] After a 60-minute incubation at room temperature, the reaction was measured using a BMG LABTECH CLARIO star Plus via TR-FRET. […] The POC values were fit to a 4-parameter IC50 equation and the IC50 value reported.
Description for KRas^G12C: as §1
Description for KRas^G12D: as §1
Description for KRas^G12R: as §1
Description for KRas^G12S: as §1
Description for KRas^G12V: as §1
Description for KRas^G13D: as §1
Description for KRas^Q61H: as §1
Description for KRas^WT: as §1

For `CCc1cccc2cccc(N3CCc4c(nc(OCC56CCCN5CCC6)nc4N4CC5(CNC(=O)N5)C4)C3)c12` [Example 149, 2-(7-(8-ethylnaphthalen-1-yl)-2-((tetrahydro-1H-pyrrolizin-7a(5H)-yl)methoxy)-5,6,7,8-tetrahydropyrido[3,4-d]pyrimidin-4-yl)-2,5,7-triazaspiro[3.4]octan-6-one], the IC50 on KRas^WT was 4.75 µM; at KRas^G12A, 2.54 µM; on KRas^G12D, 43 µM; on KRas^G12R, 1.82 µM; at KRas^G12S it was 3.35 µM; on KRas^G12V it was 1.42 µM. Further, the IC50 stood at 1.85 µM on KRas^G12C, 6.89 µM at KRas^G13D and 6.31 µM on KRas^Q61H.
Take `CCc1cccc2cccc(N3CCc4c(nc(OCC56CCCN5CCC6)nc4NC4CN(c5ccccn5)C4)C3)c12` [Example 150, 7-(8-ethylnaphthalen-1-yl)-N-(1-(pyridin-2-yl)azetidin-3-yl)-2-((tetrahydro-1H-pyrrolizin-7a(5H)-yl)methoxy)-5,6,7,8-tetrahydropyrido[3,4-d]pyrimidin-4-amine]: the IC50 at KRas^WT is 4.73 µM; at KRas^G12A, 5.03 µM; on KRas^G12D, 5.53 µM; on KRas^G12R, 1.56 µM; at KRas^G12S, 4.87 µM; at KRas^G12V, 2.55 µM. Further, the IC50 at KRas^G12C worked out at 1.95 µM; against KRas^G13D, 5.98 µM; on KRas^Q61H, 5.16 µM.
Take `CCc1cccc2cccc(N3CCc4c(nc(OCC56CCCN5CCC6)nc4N4CCC(n5ccnn5)CC4)C3)c12` [Example 151, 4-(4-(1H-1,2,3-triazol-1-yl)piperidin-1-yl)-7-(8-ethylnaphthalen-1-yl)-2-((tetrahydro-1H-pyrrolizin-7a(5H)-yl)methoxy)-5,6,7,8-tetrahydropyrido[3,4-d]pyrimidine]: the 50% inhibitory concentration (IC50) amounted to 3.65 µM on KRas^WT; 2.69 µM on KRas^G12A; 30.9 µM at KRas^G12D; 1.61 µM on KRas^G12R; 4.72 µM at KRas^G12S; 5.41 µM at KRas^G12V. Further, the IC50 came out at 3.47 µM against KRas^G12C, 2.7 µM at KRas^G13D and 4.58 µM against KRas^Q61H.
On to `CCc1cccc2cccc(N3CCc4c(nc(OCC56CCCN5CCC6)nc4NC4CCNC(=O)C4)C3)c12` (stereo not drawn) [Example 153, 4-((7-(8-ethylnaphthalen-1-yl)-2-((tetrahydro-1H-pyrrolizin-7a(5H)-yl)methoxy)-5,6,7,8-tetrahydropyrido[3,4-d]pyrimidin-4-yl)amino)piperidin-2-one], for which the IC50 on KRas^WT was found to be 8.43 µM; at KRas^G12A, 7.28 µM; on KRas^G12D it was 1.73 µM; on KRas^G12R it was 4.66 µM; on KRas^G12S it was 4.17 µM; at KRas^G12V, 3.36 µM. Moreover, the IC50 came out at 3.51 µM against KRas^G12C, 6.44 µM at KRas^G13D and 8.15 µM on KRas^Q61H.
As for `CCc1cccc2cccc(N3CCc4c(nc(OCC56CCCN5CCC6)nc4NCCNc4ncccc4C#N)C3)c12` [Example 154, 2-((2-((7-(8-ethylnaphthalen-1-yl)-2-((tetrahydro-1H-pyrrolizin-7a(5H)-yl)methoxy)-5,6,7,8-tetrahydropyrido[3,4-d]pyrimidin-4-yl)amino)ethyl)amino)nicotinonitrile], the IC50 at KRas^WT was 6.79 µM; at KRas^G12A, 4.04 µM; on KRas^G12D it was 35.7 µM; at KRas^G12R, 2.37 µM; at KRas^G12S, 7.12 µM; on KRas^G12V, 3.07 µM. The IC50 at KRas^G12C is 1.79 µM; on KRas^G13D, 8.23 µM; against KRas^Q61H, 6.91 µM.
As for `CCc1cccc2cccc(N3CCc4c(nc(OCC56CCCN5CCC6)nc4NCc4c5c(n[nH]c4=O)CCCC5)C3)c12` [Example 155, 4-(((7-(8-ethylnaphthalen-1-yl)-2-((tetrahydro-1H-pyrrolizin-7a(5H)-yl)methoxy)-5,6,7,8-tetrahydropyrido[3,4-d]pyrimidin-4-yl)amino)methyl)-5,6,7,8-tetrahydrocinnolin-3(2H)-one], the concentration for half-maximal inhibition (IC50) on KRas^WT was determined as 3.17 µM; at KRas^G12A, 1.86 µM; on KRas^G12D it was 22.4 µM; on KRas^G12R it was 4.92 µM; at KRas^G12S it was 3.4 µM; at KRas^G12V it was 7.31 µM. Besides, the IC50 against KRas^G12C was 4.42 µM; on KRas^G13D, 4.86 µM; on KRas^Q61H, 4.67 µM.
Turning to `CCc1cccc2cccc(N3CCc4c(nc(OCC56CCCN5CCC6)nc4NCc4nc5ncccc5o4)C3)c12` [Example 157, 7-(8-ethylnaphthalen-1-yl)-N-(oxazolo[4,5-b]pyridin-2-ylmethyl)-2-((tetrahydro-1H-pyrrolizin-7a(5H)-yl)methoxy)-5,6,7,8-tetrahydropyrido[3,4-d]pyrimidin-4-amine], the IC50 on KRas^WT is 17.3 µM; at KRas^G12A it was 24.3 µM; at KRas^G12D, 6.3 µM; on KRas^G12R, 9.04 µM; on KRas^G12S, 10.6 µM; on KRas^G12V, 1.95 µM. The half-maximal inhibitory concentration (IC50) at KRas^G12C came out at 7.02 µM; against KRas^G13D, 15.5 µM; at KRas^Q61H, 19.9 µM.
For `CCc1cccc2cccc(N3CCc4c(nc(OCC56CCCN5CCC6)nc4NCCNS(N)(=O)=O)C3)c12` [Example 160, N-(2-((7-(8-ethylnaphthalen-1-yl)-2-((tetrahydro-1H-pyrrolizin-7a(5H)-yl)methoxy)-5,6,7,8-tetrahydropyrido[3,4-d]pyrimidin-4-yl)amino)ethyl)sulfamide], the IC50 was determined as 8.74 µM on KRas^WT; 9.26 µM at KRas^G12A; 4.45 µM at KRas^G12D; 7.65 µM at KRas^G12R; 6.74 µM on KRas^G12S; 2.56 µM on KRas^G12V. Moreover, the IC50 against KRas^G12C was 4.24 µM; at KRas^G13D it was 10 µM; at KRas^Q61H, 11 µM.
For the molecule `CCc1cccc2cccc(N3CCc4c(nc(OCC56CCCN5CCC6)nc4NCc4nnc(CSC)[nH]4)C3)c12` [Example 161, 7-(8-ethylnaphthalen-1-yl)-N-((5-((methylthio)methyl)-4H-1,2,4-triazol-3-yl)methyl)-2-((tetrahydro-1H-pyrrolizin-7a(5H)-yl)methoxy)-5,6,7,8-tetrahydropyrido[3,4-d]pyrimidin-4-amine], the IC50 was determined as 27.4 µM on KRas^WT; 21.7 µM on KRas^G12A; 7.69 µM on KRas^G12D; 14.6 µM on KRas^G12R; 15 µM on KRas^G12S; 2.74 µM on KRas^G12V. The IC50 turned out to be 6.79 µM on KRas^G12C, 25.2 µM against KRas^G13D and 21.3 µM against KRas^Q61H.
Consider `CCc1cccc2cccc(N3CCc4c(nc(OCC56CCCN5CCC6)nc4N4CCCC(c5nc(C)no5)C4)C3)c12` (stereo not drawn) [Example 162, 5-(1-(7-(8-ethylnaphthalen-1-yl)-2-((tetrahydro-1H-pyrrolizin-7a(5H)-yl)methoxy)-5,6,7,8-tetrahydropyrido[3,4-d]pyrimidin-4-yl)piperidin-3-yl)-3-methyl-1,2,4-oxadiazole], for which the IC50 on KRas^WT was found to be 4.08 µM; at KRas^G12A, 5.22 µM; on KRas^G12D it was 7.51 µM; at KRas^G12R, 2.79 µM; on KRas^G12S, 3.43 µM; at KRas^G12V, 8.35 µM. Besides, the IC50 is 3.79 µM on KRas^G12C, 3.41 µM against KRas^G13D and 3.98 µM against KRas^Q61H.
